Experimental data from patent US20120101099A1, “HISTONE DEACETYLASE INHIBITORS” (ANTHEM BIOSCIENCES PRIVATE LIMITED, priority 2009, published 2012).

Tests used:
[1] = tested on: human HDAC (Hela cells nuclear extract); experiment: HDAC activity screening, Hela nuclear extract, Boc-Lys(Ac)-AMC substrate; format: biochemical; conditions: Hela nuclear extract; for HDAC % Inhibition (1 μM): 1 μM compound; for HDAC % Inhibition (10 μM): 10 μM compound; for IC50: read-out: IC50 (50% HDAC inhibitory concentration), Table 2
Procedure: To study the human HDAC inhibition the in-house 96 well plate assay have been established using fluorescent substrate (Boc-Lys (Ac)-AMC Substrate). Hela cells nuclear extract have been used as enzyme source.
Assay was performed in 96-well black microplate and total volume of the assay was 100 μL. Hela nuclear extract was diluted HDAC assay buffer (final concentration of 3.0 μg/mL). Enzyme mixture was made of 10 μL of diluted enzyme and 30 μL of HDAC buffer. 40 μl of enzyme mixture followed by 10 μL of test compound (final concentration from 0.01 to 10 μM) or vehicle (control) was added to each well. The plate was pre-incubated at 37° C. for 10 minutes. The HDAC reaction was started by adding 50 μl of HDAC substrate Boc-Lys (Ac)-AMC (Anaspec, Inc Fremont, Calif., USA). The plate was incubated at 37° C. for 45 minutes. The reaction was stopped by adding 50 μL of Trypsin stop solution and plate further incubated at 37° C. for 15 minutes. Measuring the fluorescence at excitation wavelength of 360 nm and emission wavelength of 460 nm monitored the release of AMC. Buffer alone and substrate alone served as blank.

PC-3 = experiment: Cell proliferation assay (MTT); format: cell-based; conditions: Homo sapiens, PC-3; Table 1; MTT, 48 hours; read-out: Cell growth inhibition (GI50 in μM) PC-3
Procedure: (§1) Cells were seeded in a 96-well cell culture plates at a concentration of 10,000 cells per well and incubated at 37° C. in CO2 incubator.
(§2) Twenty-four hours later cells were treated with different concentrations (100, 10, 1, 0.1, and 0.01 μM) of compound dissolved in DMSO and incubated for 48 hours. For To measurement, 24 hours after seeding the cells, 20 μL of 3-(4.5-dimethyl-2- thiazolyl)-2,5-diphenyl-2H-tetrazolium (MTT) solution per well was added to the T0 plate and incubated for 3 hours at 37° C. in a CO2 incubator.
(§3) The plate containing cells and test compounds was treated similarly after 48 hours of incubation. After 3 hours of MTT addition, well contents were aspirated carefully followed by addition of 100 μL DMSO per well. Plates were agitated to ensure dissolution of the formazan crystals in DMSO and absorbance was read at 570 nm (A570). […] From the percentage growths a dose response curve was generated and GI50 values were interpolated from the growth curves.

HT-29 = experiment: Cell proliferation assay (MTT); format: cell-based; conditions: Homo sapiens, HT-29; Table 1; MTT, 48 hours; read-out: Cell growth inhibition (GI50 in μM) HT-29
Procedure: as §1, §2, §3

NCI-H460 = experiment: Cell proliferation assay (MTT); format: cell-based; conditions: Homo sapiens, Table 1, MTT, 48 hours, read-out: Cell growth inhibition (GI50 in μM) NCI H460
Procedure: as §1, §2, §3

PA-1 = experiment: Cell proliferation assay (MTT); format: cell-based; conditions: Homo sapiens, Table 1, MTT, 48 hours, read-out: Cell growth inhibition (GI50 in μM) PA-1
Procedure: as §1, §2, §3

| SMILES | GI50 (PC-3) [µM] | GI50 (HT-29) [µM] | IC50 [1] [nM] | HDAC % Inhibition (1 μM) [1] [%] | HDAC % Inhibition (10 μM) [1] [%] | GI50 (NCI-H460) [µM] | GI50 (PA-1) [µM] |
| --- | --- | --- | --- | --- | --- | --- | --- |
| Cc1ccc(-c2cn(CS(=O)(=O)NCc3ccc(C(=O)NO)cc3)nn2)cc1 [Example 28] |  |  |  | 84 | 96 |  |  |
| COc1ccc(-c2cn(CS(=O)(=O)NCc3ccc(C(=O)NO)cc3)nn2)cc1 [Example 32, N-Hydroxy-4-{[4-(4-methoxy-phenyl)-[1,2,3]triazol-1-ylmethanesulfonylamino]-methyl}-benzamide] |  |  |  | 79 | 91 |  |  |
| O=C(NO)c1ccc(Cn2cc(-c3ccc(CN4CCCC4)cc3F)nn2)cc1 [Example 14, 4-[4-(2-Fluoro-4-pyrrolidin-l-ylmethyl-phenyl)-[1,2,3]triazol-1-ylmethyl]-N-hydroxy-benzamide] |  |  | 13.4 |  |  |  |  |
| COc1ccc(-c2cn(Cc3ccc(C(=O)NO)cc3)nn2)cc1 [Example 7, N-Hydroxy-4-[4-(4-methoxy-phenyl)-[1,2,3]triazol-1-ylmethyl]-benzamide] | 2.6 ± 1.2 | 1.4 ± 0.5 |  | 90 | 94 | 3.1 ± 1.7 |  |
| O=C(NO)c1ccc(CNS(=O)(=O)Cn2cc(-c3ccccc3F)nn2)cc1 [Example 30, 4-{[4-(2-Fluoro-phenyl)-[1,2,3]triazol-1-ylmethanesulfonylamino]-methyl}-N-hydroxy-benzamide] |  |  |  | 92 | 99 |  |  |
| O=C(NO)c1ccc(Cn2cc(-c3ccc(CN4CCOCC4)cc3F)nn2)cc1 [Example 15, 4-[4-(2-Fluoro-4-morpholin-4-ylmethyl-phenyl)-[1,2,3]triazol-1-ylmethyl]-N-hydroxy-benzamide] |  |  | 7.33 |  |  |  |  |
| O=C(NO)c1ccc(CNS(=O)(=O)Cn2cc(-c3cccnc3)nn2)cc1 [Example 33, N-Hydroxy-4-[(4-pyridin-3-yl-[1,2,3]triazol-1-ylmethanesulfonylamino)-methyl]-benzamide] |  |  |  | 63 | 92 |  |  |
| O=C(NO)c1ccc(CNS(=O)(=O)Cn2cc(-c3ccc(F)cc3)nn2)cc1 [Example 29, 4-{[4-(4-Fluoro-phenyl)-[1,2,3]triazol-1-ylmethanesulfonylamino)-methyl}-N-hydroxy-benzamide] |  |  |  | 87 | 98 |  |  |
| CN(C)c1ccc(-c2cn(CS(=O)(=O)NCc3ccc(C(=O)NO)cc3)nn2)cc1 [Example 31, 4-{[4-(4-Dimethylamino-phenyl)-[1,2,3]triazol-1-ylmethanesulfonylamino]-methyl}-N-hydroxy-benzamide] |  |  |  | 85 | 97 |  |  |
| O=C(NO)c1ccc(Cn2cc(-c3ccc(CCN4CCOCC4)cc3)nn2)cc1 [Example 12, N-Hydroxy-4-{4-[4-(2-morpholin-4-yl-ethyl)-phenyl]-[1,2,3]triazol-1-ylmethyl}-benzamide] |  |  | 12.8 |  |  |  |  |
| CN(C)c1ccc(-c2cn(Cc3ccc(C(=O)NO)cc3)nn2)cc1 [Example 1] | 2.4 ± 2.5 | 0.9 ± 0.8 |  | 92 | 94 | 1 ± 0.2 | 0.01 |

Continued, in another order:

| GI50 (PC-3) [µM] | GI50 (HT-29) [µM] | IC50 [1] [nM] | SMILES | HDAC % Inhibition (1 μM) [1] [%] | HDAC % Inhibition (10 μM) [1] [%] | GI50 (NCI-H460) [µM] | GI50 (PA-1) [µM] |
| --- | --- | --- | --- | --- | --- | --- | --- |
| 47.7 | 19.3 |  | O=C(/C=C/c1cccc(CNS(=O)(=O)Cn2cc(-c3ccccc3)nn2)c1)NO [Example 35, N-Hydroxy-3-{3-[(4-phenyl-[1,2,3]triazol-1-ylmethanesulfonylamino)-methyl]-phenyl}-acrylamide] | 67 | 92 | 20.4 |  |
|  | 0.48 |  | O=C(/C=C/c1cccc(Cn2cc(-c3cccnc3)nn2)c1)NO [Example 24, N-Hydroxy-3-[3-(4-pyridin-3-yl-[1,2,3]triazol-1-ylmethyl)-phenyl]-acrylamide] | 96 | 101 | 10.7 |  |
|  | 0.2 |  | O=C(/C=C/c1ccc(Cn2cc(-c3ccccc3)nn2)cc1)NO [Example 19] | 98 | 101 | 3.38 |  |
| 9.2 ± 9.5 | 13.3 ± 2.9 |  | O=C(NO)c1ccc(Cn2cc(-c3cccnc3)nn2)cc1 [Example 5, N-Hydroxy-4-(4-pyridin-3-yl-[1,2,3]triazol-1-ylmethyl)-benzamide] | 68 | 88 | 19 ± 1 |  |
| 12.2 | 0.2 |  | CN(C)c1ccc(-c2cn(Cc3cccc(/C=C/C(=O)NO)c3)nn2)cc1 [Example 23, (E)-3-{3-[4-(4-Dimethylamino-phenyl)-[1,2,3]triazol-1-ylmethyl]-phenyl}-N-hydroxy-acrylamide] | 96 | 99 | 0.3 |  |
| 3.4 ± 0.4 | 5.2 ± 3.5 |  | O=C(NO)c1ccc(Cn2cc(-c3ccc(F)cc3)nn2)cc1 [Example 3, 4-[4-(4-Fluoro-phenyl)-[1,2,3]triazol-1-ylmethyl]-N-hydroxy-benzamide] | 84 | 96 | 6.5 ± 4.2 |  |
| > 100 | 16.3 |  | O=C(NO)c1ccc(Cn2cc(-c3ccc(-c4ccccc4)cc3)nn2)cc1 [Example 6, 4-(4-Biphenyl-4-yl-[1,2,3]triazol-1-ylmethyl)-N-hydroxy-benzamide] | 75 | 87 | > 100 |  |
| 1.7 ± 1.1 | 1.9 ± 1.8 |  | O=C(NO)c1ccc(Cn2cc(-c3ccccc3)nn2)cc1 [Example 2, N-Hydroxy-4-(4-phenyl-[1,2,3]triazol-1-ylmethyl)-benzamide] | 98 | 100 | 2.6 ± 2 | 0.11 |
|  | > 100 |  | O=C(/C=C/c1ccc(Cn2cc(-c3ccc(F)cc3)nn2)cc1)NO [Example 18] | 98 | 100 | 2.21 |  |
| 0.6 ± 0.6 | 0.5 ± 0.4 |  | O=C(/C=C/c1cccc(Cn2cc(-c3ccccc3)nn2)c1)NO [Example 22, (E)-N-Hydroxy-3-[3-(4-phenyl-[1,2, 3]triazol-1-ylmethyl)-phenyl]-acrylamide] | 92 | 96 | 0.1 ± 0.2 | 0.01 |
| 4.4 | 0.38 ± 0.12 |  | CN(C)c1ccc(-c2cn(Cc3ccc(/C=C/C(=O)NO)cc3)nn2)cc1 [Example 17] | 93 | 99 | 7.06 ± 6.98 |  |
| 23.3 | 23.8 |  | O=C(NO)c1ccc(CNS(=O)(=O)Cn2cc(-c3ccccc3)nn2)cc1 [Example 34] | 91 | 99 | 19.9 |  |
| 4.6 ± 1.6 | 2.4 ± 0.5 |  | O=C(NO)c1ccc(Cn2cc(-c3ccccc3F)nn2)cc1 [Example 4, 4-[4-(2-Fluoro-phenyl)-[1,2,3]triazol-1-ylmethyl]-N-hydroxy-benzamide] | 88 | 94 | 3.2 ± 1.1 |  |
